Bridge positions count the residues as written; N and C are the ends. Square brackets hold non-standard residues; d marks the D form. Peptide text beside a SMILES is read from it. * marks the point of attachment. Ileψ(thiazoline)Cys = CC[C@H](C)[C@H](N)C1=N[C@H](C(=O)*)CS1; dOrn = NCCC[C@@H](N)C(=O)O
Columns and labels:
Experiment in all cases: Radial Diffusion Assay, antibacterial / growth promoting activity
Format in all cases: cell-based
[1] = tested on: Actinomyces naeslundii JCM8349 strain; details: for antibacterial activity / growth promoting activity: Actinomyces naeslundii JCM8349, 5 μl sample in hole, zone measured after 18 hours at 37° C.; for antibacterial and growth promoting activity, result in words: Actinomyces naeslundii JCM8349 strain
Method: (§1) The influences of gangliosides on oral bacteria were examined by Radial Diffusion Assay. That is, 3 mg of Tryptic Soy medium (Difco), 20 μl of Tween 20, and 100 mg of agarose were dissolved in 10 ml of ultrapure water and sterilized. 100 μl of solution of bacteria having an OD620 of 0.2 (5×10^7 cfu/ml) was added to the sterilized medium, and then the resultant mixture was dispensed in Petri dishes and allowed to solidify at room temperature. Each solidified medium was provided with a hole of about 2.5 mm in diameter and 5 μl of each solution of ganglioside GM3 or ganglioside GD3 derived from milk for the evaluation of the antibacterial effect was added to the hole and incubated at 37° C. for 1 hour. Further, a sterilized medium obtained by dissolving 0.6 g of Tryptic Soy medium and 100 mg of agarose in 10 ml of ultrapure water was superposed on the solidified medium and left to solidify at room temperature, and then stationary cultured in an incubator at 37° C. After 18 hours, the diameter of a clear zone formed around the hole formed in the medium was measured. A length obtained by subtracting the diameter (mm) of the hole formed in the medium from the diameter (mm) of a clear zone formed by inhibition of the growth of the bacterium was defined as antibacterial activity. On the other hand, when colonies of the bacterium were formed around the hole in the medium and an opaque zone was observed, it was assumed that growth promotion took place, and a length obtained by subtracting the diameter (mm) of the hole formed in the medium from the diameter (mm) of an opaque zone was defined as growth promotion activity. The bacterial strains subjected to the test include Streptococcus sobrinus 6715 strain, Streptococcus anginosus ATCC33397 strain, and Staphylococcus aureus Cowan I strain as harmful oral bacteria; Streptococcus agalactiae ATCC46448 strain and Actinomyces naeslundii JCM8349 strain as habitant oral bacteria; and Streptococcus mitis GTC495 strain, Streptococcus mitis ATCC6249 strain, and Streptococcus mitis ATCC903 strain as useful oral bacteria.
(§2) Bacitracin, which is an antibacterial component separated from Bacillus subtilis, was used as a positive control and a sample showing an antibacterial activity of 2.0 mm or more was judged to be positive (having an antibacterial activity). As for the growth promoting effect, a sample having a growth promoting activity of 1.0 mm or more was judged to be positive (having a growth promoting activity).

[2] = tested on: Staphylococcus aureus Cowan I strain; details: 5 μl sample in hole, zone measured after 18 hours at 37° C.
Method: as §1, §2

[3] = tested on: Streptococcus agalactiae ATCC46448 strain; details: for antibacterial activity / growth promoting activity: Streptococcus agalactiae ATCC46448, 5 μl sample in hole, zone measured after 18 hours at 37° C.; for antibacterial and growth promoting activity, result in words: Streptococcus agalactiae ATCC46448 strain
Method: as §1, §2

[4] = tested on: Streptococcus anginosus ATCC33397 strain; details: 5 μl sample in hole, zone measured after 18 hours at 37° C.
Method: as §1, §2

[5] = tested on: Streptococcus mitis ATCC6249 strain; details: 5 μl sample in hole, zone measured after 18 hours at 37° C.
Method: as §1, §2

[6] = tested on: Streptococcus mitis ATCC903 strain; details: 5 μl sample in hole, zone measured after 18 hours at 37° C.
Method: as §1, §2

[7] = tested on: Streptococcus mitis GTC945; details: 5 μl sample in hole, zone measured after 18 hours at 37° C.
Method: as §1, §2

[8] = tested on: Streptococcus sobrinus 6715 strain; details: 5 μl sample in hole, zone measured after 18 hours at 37° C.
Method: as §1, §2

Compound	antibacterial activity / growth promoting activity [1]	antibacterial activity / growth promoting activity [2]	antibacterial activity / growth promoting activity [3]	antibacterial activity / growth promoting activity [4]	antibacterial activity / growth promoting activity [5]	antibacterial activity / growth promoting activity [6]	antibacterial activity / growth promoting activity [7]	antibacterial activity / growth promoting activity [8]	antibacterial and growth promoting activity, result in words [1]	antibacterial and growth promoting activity, result in words [3]
CC[C@H](C)[C@H](N)C1=N[C@H](C(=O)N[C@@H](CC(C)C)C(=O)N[C@H](CCC(=O)O)C(=O)N[C@H](C(=O)N[C@H]2CCCCNC(=O)[C@H](CC(N)=O)NC(=O)[C@@H](CC(=O)O)NC(=O)[C@H](Cc3cnc[nH]3)NC(=O)[C@@H](Cc3ccccc3)NC(=O)[C@H]([C@@H](C)CC)NC(=O)[C@@H](CCCN)NC2=O)[C@@H](C)CC)CS1 [Bacitracin, reference compound] ({Ileψ(thiazoline)Cys}-L[dE]IK[dOrn]I[dF]H[dD]N; lactam 4-C)	+ (Having an antibacterial activity)	+ (Having an antibacterial activity)	+ (Having an antibacterial activity)	+ (Having an antibacterial activity)	+ (Having an antibacterial activity)	+ (Having an antibacterial activity)	+ (Having an antibacterial activity)	+ (Having an antibacterial activity)	–	–
ganglioside GD3	− (Having no antibacterial activity)	+ (Having an antibacterial activity)	− (Having no antibacterial activity)	+ (Having an antibacterial activity)	* (Having a growth promoting activity)	* (Having a growth promoting activity)	* (Having a growth promoting activity)	+ (Having an antibacterial activity)	neither an antibacterial activity nor a growth promoting activity	neither an antibacterial activity nor a growth promoting activity
ganglioside GM3	− (Having no antibacterial activity)	+ (Having an antibacterial activity)	− (Having no antibacterial activity)	+ (Having an antibacterial activity)	* (Having a growth promoting activity)	* (Having a growth promoting activity)	* (Having a growth promoting activity)	+ (Having an antibacterial activity)	neither an antibacterial activity nor a growth promoting activity	neither an antibacterial activity nor a growth promoting activity

Source: patent US8183215B2, “Method of administering oral flora-improving agent, antibacterial agent and growth promoter” (Megmilk Snow Brand Co., Ltd., priority 2004, dated 2012)
